{"source": "patent US20100172925A1", "about": "“HLA-A2-RESTRICTED T-CELL EPITOPES OF THE RESPIRATORY SYNCYTIAL VIRUS FUSION PROTEIN AS PEPTIDE-BASED VACCINES” (priority 2009, published 2010)", "system": "peptide-loaded T2 cells", "assay": "Cytotoxicity (CTL) assay, CFSE/7-AAD, splenocytes of peptide-immunized mice against peptide-loaded T2 cells", "format": "in vivo, mouse", "conditions": "E:T ratio of 100:1; IFA vehicle background 6.5%", "procedure": "A non-radioactive assay of cell-mediated cytotoxicity was performed using green fluorescent probes 5-(6)-carboxyfluorescein diacetate succinimidyl ester (CFSE) to label target cells in combination with 7-amino-actinomycin D (7AAD), a red fluorescent probe to label dead effector and dead target cells. The assay was used to assess the presence of the RSV F protein-specific CTLs in the spleens or lungs of the immunized animals [Russell et al. (2002) “Lymphocyte-mediated cytotoxicity” Annu Rev Immunol 20:323-70]. The assay protocol was in accordance with the manufacturer's instructions (Cayman Chemical, Michigan, USA). […]\nThe CFSE-labeled target cells were resuspended in the culture medium and incubated at 37° C. of CO2 incubator for 30 minutes. […] The CFSE positive cells were measured in the FL1 channel and 7-AAD stained cells were measured in the FL3 channel. The percentage of CFSE/7-AAD double positive target cells (i.e., T2 cell death) was analyzed.\nIt has been reported that in primary RSV infection of BALB/c mice, CTLs generated against the F, matrix 2 (M2) and N viral proteins play a protective role in virus clearance. […] A mean background percentage of the killed target cells co-cultured with the control splenocytes isolated from the mouse previously immunized with the vehicle IFA was scored (6.5% at the E:T ratio of 100:1). […]", "data": [{"sequence": "KVLDLKNYI (F214-222) [compound 13, 9-mer synthetic peptide from the F protein of RSV-B1 strain]", "values": [{"measurement": "percentage of killed target cells (CFSE and 7-AAD double positive T2 cells), CTL response", "value": 15.4, "unit": "%"}]}]}
